Test results reported in ChEMBL document CHEMBL3044944, “Synthesis and evaluation of meta substituted 1-(aryloxypropyl)-4-(chloroaryl) piperazines as potential atypical antipsychotics” (2013).
Activity calls are given as the source filed them. No cut-off for these calls is given here.

Experiments:
Mus musculus [1] = experiment: Antipsychotic activity in Mus musculus albino lyka (mouse) assessed as reversal of apomorphine-induced mesh climbing at 5 to 10 mg/kg, ip administered 10 min prior to apomorphine challenge measured after 10 to 30 min; type: functional, organism-based
Mus musculus [2] = experiment: Antipsychotic activity in Mus musculus albino lyka (mouse) assessed as reversal of apomorphine-induced stereotypy at 5 to 10 mg/kg, ip administered 10 min prior to apomorphine challenge measured after 10 to 30 min; type: functional, organism-based
Mus musculus [3] = experiment: Antipsychotic activity in ip dosed Mus musculus albino lyka (mouse) assessed as reversal of apomorphine-induced mesh climbing administered 10 min prior to apomorphine challenge measured after 10 to 30 min; type: functional; settings: for ED50: Mus musculus, albino lyka, ip

| SMILES | Activity (Mus musculus [1]) | Activity (Mus musculus [2]) | logED50 (Mus musculus [3]) | ED50 (Mus musculus [3]) [mg/kg] |
| --- | --- | --- | --- | --- |
| O=Cc1cccc(OCCCN2CCN(C(=O)c3ccc(Cl)cc3)CC2)c1 | inactive | Active |  |  |
| O=Cc1cccc(OCCCN2CCN(Cc3ccccc3Cl)CC2)c1 |  | inactive | 0.799 | 6.3 |
| CC(=O)c1cccc(OCCCN2CCN(C(=O)c3ccc(Cl)cc3)CC2)c1 | inactive | Active |  |  |
| CC(=O)c1cccc(OCCCN2CCN(C(=O)c3ccccc3Cl)CC2)c1 | inactive | Active |  |  |
| O=Cc1cccc(OCCCN2CCN(Cc3ccc(Cl)cc3)CC2)c1 |  | Active | 1 | 10 |
| O=Cc1cccc(OCCCN2CCN(C(=O)c3ccccc3Cl)CC2)c1 | inactive | Active |  |  |
| CC(=O)c1cccc(OCCCN2CCN(Cc3ccccc3Cl)CC2)c1 |  | inactive | 0.903 | 8 |
| CC(=O)c1cccc(OCCCN2CCN(Cc3ccc(Cl)cc3)CC2)c1 |  | inactive | 0.857 | 7.2 |
